Patent US20230339886A1 (University of Florida Research Foundation, Incorporated, priority 2020, published 2023)
Like-named read-outs stand apart in the source and are kept apart here. One block for each molecule: values may come before it.

Biological target: T1, REV-ERBα LBD (human; residues 281-614 Δ324-422) (Homo sapiens, UniProt P20393, DEL324-422)
T1 construct: 6×Histag-REV-ERBα LBD (human; residues 281-614 Δ324-422); made in house; host or cells: Escherichia coli
Test: TR-FRET corepressor interaction assay (REV-ERBα LBD, FITC-SMRT peptide)
Format: biochemical
Outline: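 Compound serial dilutions (in DMSO, triplicate) incubated 2 h at 4 °C; Tb donor excited at 340 nm, emission read at 495 nm and FITC acceptor at 520 nm. TR-FRET ratio (520/495 nm) plotted against ligand concentration and fitted to a sigmoidal dose-response curve.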

[1] = Table 2, read-out: REVERBα agonism (EC50 class, FRET assay)
[2] = FITC-SMRT peptide, read-out: REVERBα agonism (EC50 class, FRET assay)

T1 sequence (P20393 with tags, fused parts or gaps DEL324-422): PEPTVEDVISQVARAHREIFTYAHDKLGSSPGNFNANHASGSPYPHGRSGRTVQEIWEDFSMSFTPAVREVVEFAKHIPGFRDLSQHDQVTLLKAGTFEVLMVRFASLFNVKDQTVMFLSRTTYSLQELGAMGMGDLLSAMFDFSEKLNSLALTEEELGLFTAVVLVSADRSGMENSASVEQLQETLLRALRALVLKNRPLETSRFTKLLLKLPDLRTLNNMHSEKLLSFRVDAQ
T1 sequence (Q9Y618 2335-2356 partner limits assumed): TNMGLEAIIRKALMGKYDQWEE

SMILES: CC(C)Cn1cc(C(NS(=O)(=O)C(C)C)C(F)(F)F)c2ccc(-c3ccccc3C(F)(F)F)cc21 (stereo not shown) [Example 224, N-(2,2,2-trifluoro-1-(1-isobutyl-6-(2-(trifluoromethyl)phenyl)-1H-indol-3-yl)ethyl)propane-2-sulfonamide]
EC50 [1]: 500 to 3000 nM

SMILES: CC(NS(=O)(=O)C1CC1)c1cn(CC(C)(C)C)c2cc(-c3ccccc3C(F)(F)F)c(F)cc12 (stereo not shown) [Example 423, N-(1-(5-fluoro-1-neopentyl-6-(2-(trifluoromethyl)phenyl)-1H-indol-3-yl)ethyl)cyclopropanesulfonamide]
EC50 [2]: < 500 nM

SMILES: CC(C)(C)Cn1cc([C@H](NS(=O)(=O)C2CCC2)C(F)(F)F)c2cc(F)c(C3CCCC3)cc21 [Example 428, (S)—N-(1-(6-cyclopentyl-5-fluoro-1-neopentyl-1H-indol-3-yl)-2,2,2-trifluoroethyl)cyclobutanesulfonamide]
EC50 [2]: < 500 nM

SMILES: CC(C)C(=O)n1cc(CNS(=O)(=O)N(C)C)c2ccc(-c3ccnn3C)cc21 [Example 184, 1-(3-{[(dimethylsulfamoyl)amino]methyl}-6-(1-methyl-1H-pyrazol-5-yl)-1H-indol-1-yl)-2-methylpropan-1-one]
EC50 [1]: > 3000 nM

SMILES: CC(C)Cn1cc(C2(CNS(=O)(=O)N(C)C)CC2)c2ccc(-c3ccncc3)cc21 [Example 178, dimethyl[({1-[1-(2-methylpropyl)-6-(pyridin-4-yl)-1H-indol-3-yl]cyclopropyl}methyl)sulfamoyl]amine]
EC50 [1]: < 500 nM

SMILES: CC(C)(C)Cn1cc(CCNS(=O)(=O)C2CC2)c2ccc(-c3ccc(Cl)cc3C#N)cc21 [Example 482, N-(2-(6-(4-chloro-2-cyanophenyl)-1-neopentyl-1H-indol-3-yl)ethyl)cyclopropanesulfonamide]
EC50 [2]: < 500 nM

SMILES: CC(C)S(=O)(=O)NCCc1cn(CC(C)(C)C)c2cc(-c3ccccc3C(F)(F)F)c(F)cc12 [Compound 289]
EC50 [1]: < 500 nM

SMILES: N#Cc1cccc(F)c1-c1ccc2c([C@H](NS(=O)(=O)C3CCC3)C(F)(F)F)cn(C3CCOCC3)c2c1 [Example 526, (S)—N-(1-(6-(2-cyano-6-fluorophenyl)-1-(tetrahydro-2H-pyran-4-yl)-1H-indol-3-yl)-2,2,2-trifluoroethyl)cyclobutanesulfonamide]
EC50 [2]: < 500 nM

SMILES: CC(C)Cn1cc(CCNS(=O)(=O)N(C)C)c2ccc(N(C)C)cc21 [Example 113, N′-{2-[6-N,N-dimethylamino-1-(2-methylpropyl)-1H-indol-3-yl]ethyl}-N,N-dimethylsulfuric diamide]
EC50 [1]: 500 to 3000 nM

SMILES: CC(NS(=O)(=O)C1CCC1)c1cn(CC(C)(C)C)c2cc(-c3ccccc3C(F)(F)F)c(F)cc12 (stereo not shown) [Example 508, N-(1-(5-fluoro-1-neopentyl-6-(2-(trifluoromethyl)phenyl)-1H-indol-3-yl)ethyl)cyclobutanesulfonamide]
EC50 [2]: < 500 nM

SMILES: CC(C)(C)Cn1cc(CCNS(=O)(=O)C2CC2)c2ccc(-c3cc(C(F)(F)F)ccc3Cl)cc21 [Example 484, N-(2-(6-(2-chloro-5-(trifluoromethyl)phenyl)-1-neopentyl-1H-indol-3-yl)ethyl)cyclopropanesulfonamide]
EC50 [2]: < 500 nM

SMILES: CN(C)C(=O)Cn1cc(CCNS(=O)(=O)N(C)C)c2ccc(Br)cc21 [Example 167, 2-(6-bromo-3-(2-((N,N-dimethylsulfamoyl)amino)ethyl)-1H-indol-1-yl)-N,N-dimethylacetamide]
EC50 [1]: 500 to 3000 nM

SMILES: CC(C)(C)Cn1cc([C@H](NS(=O)(=O)C2CC2)C(F)(F)F)c2ccc(-c3cccnc3C#N)cc21 [Example 466, (S)—N-(1-(6-(2-cyanopyridin-3-yl)-1-neopentyl-1H-indol-3-yl)-2,2,2-trifluoroethyl)cyclopropanesulfonamide]
EC50 [2]: < 500 nM

SMILES: CC(C)(C)Cn1cc([C@H](NS(=O)(=O)C2CCC2)C(F)(F)F)c2cc(F)c(-c3ccccc3C(F)(F)F)cc21 [Example 374, (S)—N-(2,2,2-trifluoro-1-(5-fluoro-1-neopentyl-6-(2-(trifluoromethyl)phenyl)-1H-indol-3-yl)ethyl)cyclobutanesulfonamide]
EC50 [1]: < 500 nM

SMILES: CC(C)(C)Cn1cc([C@H](NS(=O)(=O)C2CCC2)C(F)(F)F)c2cc(F)c(-c3ncccc3C#N)cc21 [Example 538, (S)—N-(1-(6-(3-cyanopyridin-2-yl)-5-fluoro-1-neopentyl-1H-indol-3-yl)-2,2,2-trifluoroethyl)cyclobutanesulfonamide]
EC50 [2]: < 500 nM

SMILES: CC(C)(C)Cc1cn(CCNS(=O)(=O)C2CC2)c2ccc(-c3ccc(Cl)cc3C#N)cc12 [Example 401, N-(2-(5-(4-chloro-2-cyanophenyl)-3-neopentyl-1H-indol-1-yl)ethyl)cyclopropanesulfonamide]
EC50 [1]: < 500 nM

SMILES: CC(C)Cn1cc(CCN(C)S(=O)(=O)N(C)C)c2ccc(-c3ccncc3)cc21 [Compound 5]
EC50 [1]: < 500 nM

SMILES: CC(C)Cn1cc([C@H](NS(=O)(=O)N(C)C)C(F)(F)F)c2cc(F)c(-c3ccccc3C(F)(F)F)cc21 [Example 320, dimethyl({[(1S)-2,2,2-trifluoro-1-[5-fluoro-1-(2-methylpropyl)-6-[2-(trifluoromethyl)phenyl]-1H-indol-3-yl]ethyl]sulfamoyl})amine]
EC50 [1]: < 500 nM

SMILES: CC(C)Cn1cc(CCN(C)S(=O)(=O)N(C)C)c2ccc(C#N)cc21 [Compound 122, 3-{2-[(dimethylsulfamoyl)(methyl)amino]ethyl}-1-(2-methylpropyl)-1H-indole-6-carbonitrile]
EC50 [1]: > 3000 nM

Further lines, results first:

EC50 [1]: < 500 nM
SMILES: CC(C)S(=O)(=O)NCCn1cc(CC(C)(C)C)c2cc(-c3ccc(C(F)(F)F)cc3C(F)(F)F)ccc21 [Example 417, N-(2-(5-(2,4-bis(trifluoromethyl)phenyl)-3-neopentyl-1H-indol-1-yl)ethyl)propane-2-sulfonamide]

EC50 [1]: 500 to 3000 nM
SMILES: Cc1ccc(-c2ccc3c(CCNS(=O)(=O)N(C)C)cn(CC(C)C)c3c2)cc1 [Example 48, N-{2-[6-(4-methylphenyl)-1-(2-methylpropyl)-1H-indol-3-yl]ethyl}-N,N-dimethylsulfuric diamide]

EC50 [1]: > 3000 nM
SMILES: CC(=O)N1CCC(c2ccc3c(CCNS(=O)(=O)N(C)C)cn(CC(C)C)c3c2)CC1 [Compound 103, 1-[4-(3-{2-[(dimethylsulfamoyl)amino]ethyl}-1-(2-methylpropyl)-1H-indol-6-yl)piperidin-1-yl]ethan-1-one]

EC50 [1]: 500 to 3000 nM
SMILES: CC(C)(C)Cn1cc([C@H](NS(=O)(=O)C2CC2)C(F)(F)F)c2ccc(-c3ccc(F)c(C#N)c3)cc21 [Example 387, (S)—N-(1-(6-(3-cyano-4-fluorophenyl)-1-neopentyl-1H-indol-3-yl)-2,2,2-trifluoroethyl)cyclopropanesulfonamide]

EC50 [1]: < 500 nM
SMILES: CN(C)S(=O)(=O)NCCc1cn(Cc2cccc(F)c2)c2cc(-c3ccncc3)ccc12 [Example 144, N-{2-[6-(pyridin-4-yl)-1-(3-fluorobenzyl)-1H-indol-3-yl]ethyl}-N,N-dimethylsulfuric diamide]

EC50 [1]: < 500 nM
SMILES: CC(C)(C)Cn1cc([C@H](NS(=O)(=O)C2CC2)C(F)(F)F)c2ccc(Br)cc21 [Example 343, (S)—N-(1-(6-bromo-1-neopentyl-1H-indol-3-yl)-2,2,2-trifluoroethyl)cyclopropanesulfonamide]

EC50 [1]: > 3000 nM
SMILES: CC(C)(C)Cn1cc(CC2(NS(=O)(=O)C3CC3)CC2)c2ccc(-c3ccccc3C(F)(F)F)cc21 [Example 406, N-(1-((1-neopentyl-6-(2-(trifluoromethyl)phenyl)-1H-indol-3-yl)methyl)cyclopropyl)cyclopropanesulfonamide]

EC50 [2]: < 500 nM
SMILES: [2H]C([2H])([2H])C(NS(=O)(=O)C1CCC1)c1cn(CC(C)(C)C)c2cc(-c3ccccc3C(F)(F)F)ccc12 (stereo not shown) [Example 509, N-(1-(1-neopentyl-6-(2-(trifluoromethyl)phenyl)-1H-indol-3-yl)ethyl-2,2,2-d3)cyclobutanesulfonamide]

EC50 [2]: < 500 nM
SMILES: [2H]C(C)(NS(=O)(=O)C1CCC1)c1cn(CC(C)(C)C)c2cc(-c3ccccc3C(F)(F)F)ccc12 (stereo not shown) [Example 445, N-(1-(1-neopentyl-6-(2-(trifluoromethyl)phenyl)-1H-indol-3-yl)ethyl-1-d)cyclobutanesulfonamide]

EC50 [1]: 500 to 3000 nM
SMILES: CC(C)Cn1cc(CCNS(=O)(=O)N(C)C)c2ccc(OC(C)C)cc21 [Example 118, N′-{2-[6-isopropoxy-1-(2-methylpropyl)-1H-indol-3-yl]ethyl}-N,N-dimethylsulfuric diamide]

EC50 [1]: < 500 nM
SMILES: CC(C)(C)Cn1cc([C@H](NS(=O)(=O)C2CC2)C(F)(F)F)c2cc(F)c(-c3ccn[nH]3)cc21 [Example 380, N-[(1S)-1-[1-(2,2-dimethylpropyl)-5-fluoro-6-(1H-pyrazol-5-yl)indol-3-yl]-2,2,2-trifluoro-ethyl]cyclopropanesulfonamide]

EC50 [1]: 500 to 3000 nM
SMILES: CC(C)(C)Cn1cc([C@H](NS(=O)(=O)C2CC2)C(F)(F)F)c2cc(C(F)(F)F)c(-c3ccccc3C(F)(F)F)cc21 [Example 357, (S)—N-(2,2,2-trifluoro-1-(1-neopentyl-5-(trifluoromethyl)-6-(2-(trifluoromethyl)phenyl)-1H-indol-3-yl)ethyl)cyclopropanesulfonamide]

EC50 [1]: < 500 nM
SMILES: CC(C)(C)Cn1cc(CCNS(=O)(=O)C2CC2)c2ccc(-c3ccc(Cl)cc3C(F)(F)F)cc21 [Example 394, N-(2-(6-(4-chloro-2-(trifluoromethyl)phenyl)-1-neopentyl-1H-indol-3-yl)ethyl)cyclopropanesulfonamide]

EC50 [2]: 500 to 3000 nM
SMILES: N#CC1(Cn2cc([C@H](NS(=O)(=O)C3CC3)C(F)(F)F)c3cc(F)c(-c4ccccc4C(F)(F)F)cc32)CC1 [Example 476, N-[(1S)-1-[1-[(1-cyanocyclopropyl)methyl]-5-fluoro-6-[2-(trifluoromethyl)phenyl]indol-3-yl]-2,2,2-trifluoro-ethyl]cyclopropanesulfonamide]

EC50 [1]: 500 to 3000 nM
SMILES: CN(C)S(=O)(=O)NCCc1cn(Cc2ccncc2)c2cc(Br)ccc12 [Example 162, [(2-{6-bromo-1-[(pyridin-4-yl)methyl]-1H-indol-3-yl}ethyl)sulfamoyl]dimethylamine]
